Results as given in ChEMBL document CHEMBL3853264 (Medchemcomm, 2016).

Experiments:
[1] = Drug level in rat hepatocytes treated with 4-(3-chloro-4-(hydroxymethyl)phenoxy)-3-cyano-N-(5-fluoropyridin-2-yl)benzenesulfonamide; format: ADME, cell-based, Hepatocyte
[2] = molecular target: T1, Solute carrier family 22 member 12 (Homo sapiens, UniProt Q96S37); assay: Inhibition of human C-terminal eGFP-tagged URAT1 long isoform expressed in CHO cells assessed as decrease in [14C]-uric acid uptake preincubated for 15 mins followed by [14C]-uric acid addition and incubated in dark for 3 hrs by scintillation counting method; format: cell-based
T1 sequence (Q96S37 whole entry): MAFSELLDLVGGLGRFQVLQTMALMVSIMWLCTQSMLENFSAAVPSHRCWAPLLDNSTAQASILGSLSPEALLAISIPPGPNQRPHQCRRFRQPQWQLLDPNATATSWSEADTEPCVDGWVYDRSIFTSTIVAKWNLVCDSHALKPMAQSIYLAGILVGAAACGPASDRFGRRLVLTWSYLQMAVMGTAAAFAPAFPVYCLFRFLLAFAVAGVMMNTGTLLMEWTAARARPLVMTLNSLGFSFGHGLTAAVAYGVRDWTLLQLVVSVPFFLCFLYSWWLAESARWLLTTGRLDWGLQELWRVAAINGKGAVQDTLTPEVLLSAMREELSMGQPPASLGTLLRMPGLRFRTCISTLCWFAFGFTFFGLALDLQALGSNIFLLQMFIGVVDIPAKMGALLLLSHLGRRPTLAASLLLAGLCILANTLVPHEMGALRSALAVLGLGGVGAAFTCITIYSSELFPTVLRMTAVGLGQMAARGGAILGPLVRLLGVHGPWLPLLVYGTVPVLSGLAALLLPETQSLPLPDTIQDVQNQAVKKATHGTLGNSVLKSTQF

[3] = Intrinsic clearance in human liver microsomes; format: ADME; settings: read-out: CLH
[4] = Octanol-water partition co-efficient, log D of the compound by shake flask method; format: physicochemical
[5] = molecular target: T1, Solute carrier family 22 member 12; assay: Inhibition of URAT1 (unknown origin)

Compound: N#Cc1cc(S(=O)(=O)Nc2ccc(F)cn2)ccc1Oc1ccc(CO[C@@H]2O[C@H](C(=O)O)[C@@H](O)[C@H](O)[C@H]2O)c(Cl)c1
- Drug metabolism [1]: Metabolite_Detected

Compound: N#Cc1ccc(Oc2ccc(S(=O)(=O)Nc3ccccn3)cc2C#N)cc1Cl
- IC50 [2]: 115 nM

Compound: N#Cc1ccc(Oc2ccc(S(=O)(=O)Nc3ccc(F)cn3)cc2)cc1F
- IC50 [2]: 88 nM

Compound: N#Cc1cc(Oc2ccc(S(=O)(=O)Nc3ccc(F)cn3)cc2C#N)ccc1F
- microsomal CLint [3]: 83 µL/min/mg
- logD [4]: 1.5

Compound: N#Cc1ccc(Oc2ccc(S(=O)(=O)Nc3ccc(F)cn3)c(F)c2)cc1F
- IC50 [2]: 37 nM

Compound: N#Cc1ccc(Oc2ccc(S(=O)(=O)Nc3ccc(F)cn3)cc2C#N)c(Cl)c1
- microsomal CLint [3]: < 8 µL/min/mg
- logD [4]: 1.9

Compound: N#Cc1ccc(Oc2ccc(S(=O)(=O)Nc3cccnc3)cc2C#N)cc1Cl
- IC50 [2]: 395 nM

Compound: CC(C)OC(=O)C(C)(C)Oc1ccc(C(=O)c2ccc(Cl)cc2)cc1 [FENOFIBRATE]
- IC50 [5]: > 75000 nM

Compound: N#Cc1cc(S(=O)(=O)Nc2ccc(F)cn2)ccc1Oc1ccc(F)c(Cl)c1
- microsomal CLint [3]: 163 µL/min/mg
- logD [4]: 2.3

Compound: N#Cc1ccc(Oc2ccc(S(=O)(=O)Nc3ncccn3)cc2C#N)cc1Cl
- IC50 [2]: 1820 nM
